In ChEMBL document CHEMBL1201861, “Genomics of Drug Sensitity in Cancer screening data, Wellcome Trust Sanger Institute”:
pIC50: −log10 of the molar value.

Assays:
[1] = system: TYK-nu; test: cells; assay type: functional, cell-based, Homo sapiens; details: Homo sapiens, TYK-nu;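 note: growth inhibition of human TYK-nu cells, read out by a cell viability assay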
Description: SANGER: Inhibition of human TYK-nu cell growth in a cell viability assay.

[2] = system: HPAF-II; test: cells; assay type: functional, cell-based, Homo sapiens; details: Homo sapiens, HPAF-II;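 note: growth inhibition of HPAF-II cells, read out with a cell viability assay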
Description: SANGER: Inhibition of human HPAF-II cell growth in a cell viability assay.

[3] = system: GAMG; test: cells; assay type: functional, cell-based, Homo sapiens; details: Homo sapiens, GAMG;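 note: cell growth inhibition measured by a viability assay in the GAMG human cell line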
Description: SANGER: Inhibition of human GAMG cell growth in a cell viability assay.

[4] = system: CHL-1; test: cells; assay type: functional, cell-based, Homo sapiens; details: Homo sapiens, CHL-1;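 note: cell growth inhibition, read out with a cell viability assay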
Description: SANGER: Inhibition of human CHL-1 cell growth in a cell viability assay.

[5] = system: HCC70; test: cells; assay type: functional, cell-based, Homo sapiens; details: Homo sapiens, HCC70;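 note: cell viability assay measuring how strongly the compound suppresses proliferation of HCC70 cells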
Description: SANGER: Inhibition of human HCC70 cell growth in a cell viability assay.

[6] = system: NCI-H524; test: cells; assay type: functional, cell-based, Homo sapiens; details: Homo sapiens, NCI-H524;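 note: growth inhibition of human NCI-H524 cells, read out through a cell viability assay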
Description: SANGER: Inhibition of human NCI-H524 cell growth in a cell viability assay.

[7] = system: COLO-741; test: cells; assay type: functional, cell-based, Homo sapiens; details: Homo sapiens, COLO-741
Description: SANGER: Inhibition of human COLO-741 cell growth in a cell viability assay.

[8] = system: G-361; test: cells; assay type: functional, cell-based, Homo sapiens; details: Homo sapiens, G-361
[9] = system: T84; test: cells; assay type: functional, cell-based, Homo sapiens; details: Homo sapiens, T84;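 note: growth inhibition measured with a cell viability readout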
Description: SANGER: Inhibition of human T84 cell growth in a cell viability assay.

[10] = system: SW1573; test: cells; assay type: functional, cell-based, Homo sapiens; details: Homo sapiens, SW1573;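 note: growth inhibition of SW1573 cells, read out with a cell viability assay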
Description: SANGER: Inhibition of human SW1573 cell growth in a cell viability assay.

[11] = system: VMRC-RCZ; test: cells; assay type: functional, cell-based, Homo sapiens; details: Homo sapiens, VMRC-RCZ
Description: SANGER: Inhibition of human VMRC-RCZ cell growth in a cell viability assay.

[12] = system: Ca-Ski; test: cells; assay type: functional, cell-based, Homo sapiens; details: Homo sapiens, Ca-Ski;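 note: cell viability assay measuring inhibition of Ca-Ski cell growth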
Description: SANGER: Inhibition of human Ca-Ski cell growth in a cell viability assay.

[13] = system: SK-MES-1; test: cells; assay type: functional, cell-based, Homo sapiens; details: Homo sapiens, SK-MES-1;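 note: growth inhibition of human SK-MES-1 cells, read out with a cell viability assay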
Description: SANGER: Inhibition of human SK-MES-1 cell growth in a cell viability assay.

[14] = system: L-540; test: cells; assay type: functional, cell-based, Homo sapiens; details: Homo sapiens, L-540;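 note: growth inhibition of the human L-540 cell line, read out with a viability assay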
Description: SANGER: Inhibition of human L-540 cell growth in a cell viability assay.

[15] = system: NCI-H716; test: cells; assay type: functional, cell-based, Homo sapiens; details: Homo sapiens, NCI-H716;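 note: growth inhibition of human NCI-H716 cells, measured by a cell viability assay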
Description: SANGER: Inhibition of human NCI-H716 cell growth in a cell viability assay.

[16] = system: KYSE-140; test: cells; assay type: functional, cell-based, Homo sapiens; details: Homo sapiens, KYSE-140;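 note: cell viability assay measuring growth inhibition in human KYSE-140 cells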
Description: SANGER: Inhibition of human KYSE-140 cell growth in a cell viability assay.

[17] = system: SK-MEL-28; test: cells; assay type: functional, cell-based, Homo sapiens; details: Homo sapiens, SK-MEL-28;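 note: growth inhibition of human SK-MEL-28 cells, read out with a cell viability assay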
Description: SANGER: Inhibition of human SK-MEL-28 cell growth in a cell viability assay.

[18] = system: DoTc2-4510; test: cells; assay type: functional, cell-based, Homo sapiens; details: Homo sapiens, DoTc2-4510
[19] = system: NCI-H520; test: cells; assay type: functional, cell-based, Homo sapiens; details: Homo sapiens, NCI-H520;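 note: growth inhibition of NCI-H520 cells, measured by a cell viability assay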
Description: SANGER: Inhibition of human NCI-H520 cell growth in a cell viability assay.

[20] = system: 786-0; test: cells; assay type: functional, cell-based, Homo sapiens; details: Homo sapiens
Description: SANGER: Inhibition of human 786-0 cell growth in a cell viability assay.

[21] = system: NCI-H1694; test: cells; assay type: functional, cell-based, Homo sapiens; details: Homo sapiens, NCI-H1694;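 note: cell viability assay measuring inhibition of growth in human NCI-H1694 cells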
Description: SANGER: Inhibition of human NCI-H1694 cell growth in a cell viability assay.

[22] = system: MIA PaCa-2; test: cells; assay type: functional, cell-based, Homo sapiens; details: Homo sapiens, MIA PaCa-2;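 note: growth inhibition of MIA PaCa-2 cells, read out with a cell viability assay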
Description: SANGER: Inhibition of human MIA-PaCa-2 cell growth in a cell viability assay.

[23] = system: COLO-679; test: cells; assay type: functional, cell-based, Homo sapiens; details: Homo sapiens, COLO-679
Description: SANGER: Inhibition of human COLO-679 cell growth in a cell viability assay.

[24] = system: SW1783; test: cells; assay type: functional, cell-based, Homo sapiens; details: Homo sapiens, SW1783
Description: SANGER: Inhibition of human SW1783 cell growth in a cell viability assay.

[25] = system: MeWo; test: cells; assay type: functional, cell-based, Homo sapiens; details: Homo sapiens, MeWo;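 note: growth inhibition of MeWo cells, determined by a cell viability readout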
Description: SANGER: Inhibition of human Mewo cell growth in a cell viability assay.

[26] = system: MFE-280; test: cells; assay type: functional, cell-based, Homo sapiens; details: Homo sapiens, MFE-280;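 note: growth inhibition of MFE-280 cells, determined with a cell viability readout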
Description: SANGER: Inhibition of human MFE-280 cell growth in a cell viability assay.

[27] = system: OPM-2; test: cells; assay type: functional, cell-based, Homo sapiens; details: Homo sapiens, OPM-2;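 note: growth of OPM-2 cells measured with a viability assay, IC50 for suppression of proliferation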
Description: SANGER: Inhibition of human OPM-2 cell growth in a cell viability assay.

[28] = system: 647-V; test: cells; assay type: functional, cell-based, Homo sapiens; details: Homo sapiens, 647-V;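 note: growth inhibition of 647-V cells, read out with a cell viability assay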
Description: SANGER: Inhibition of human 647-V cell growth in a cell viability assay.

[29] = system: MDA-MB-415; test: cells; assay type: functional, cell-based, Homo sapiens; details: Homo sapiens, MDA-MB-415
[30] = system: NCI-H1882; test: cells; assay type: functional, cell-based, Homo sapiens; details: Homo sapiens, NCI-H1882;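 note: growth inhibition of the cell line, determined with a viability assay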
Description: SANGER: Inhibition of human NCI-H1882 cell growth in a cell viability assay.

[31] = system: CAPAN-1; test: cells; assay type: functional, cell-based, Homo sapiens; details: Homo sapiens, CAPAN-1;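 note: growth suppression of CAPAN-1 cells, read out by a cell viability assay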
Description: SANGER: Inhibition of human CAPAN-1 cell growth in a cell viability assay.

[32] = system: NCI-H2170; test: cells; assay type: functional, cell-based, Homo sapiens; details: Homo sapiens, NCI-H2170;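 note: cell viability assay measuring growth inhibition of human NCI-H2170 cancer cells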
Description: SANGER: Inhibition of human NCI-H2170 cell growth in a cell viability assay.

[33] = system: HSC-2; test: cells; assay type: functional, cell-based, Homo sapiens; details: Homo sapiens, HSC-2;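 note: growth inhibition of human HSC-2 cells, read out by a cell viability assay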
Description: SANGER: Inhibition of human HSC-2 cell growth in a cell viability assay.

[34] = system: NCI-H596; test: cells; assay type: functional, cell-based, Homo sapiens; details: Homo sapiens, NCI-H596;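 note: growth inhibition of NCI-H596 cells, read out with a cell viability assay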
Description: SANGER: Inhibition of human NCI-H596 cell growth in a cell viability assay.

[35] = system: NCI-H1963; test: cells; assay type: functional, cell-based, Homo sapiens; details: Homo sapiens, NCI-H1963;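 note: cell growth inhibition of the human line, determined with a cell viability assay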
Description: SANGER: Inhibition of human NCI-H1963 cell growth in a cell viability assay.

[36] = system: NCCIT; test: SANGER: Inhibition of human NCCIT cell growth in a cell viability assay.; assay type: functional, cell-based; details: Homo sapiens, NCCIT
[37] = system: HCT-15; test: cells; assay type: functional, cell-based, Homo sapiens; details: Homo sapiens, HCT-15;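 note: cell viability readout, IC50 reflecting suppression of HCT-15 cell growth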
Description: SANGER: Inhibition of human HCT-15 cell growth in a cell viability assay.

[38] = system: SW626; test: cells; assay type: functional, cell-based, Homo sapiens; details: Homo sapiens, SW626;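 note: growth inhibition of SW626 cells, measured with a cell viability assay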
Description: SANGER: Inhibition of human SW626 cell growth in a cell viability assay.

[39] = system: LN-405; test: cells; assay type: functional, cell-based, Homo sapiens; details: Homo sapiens, LN-405
Description: SANGER: Inhibition of human LN-405 cell growth in a cell viability assay.

[40] = system: 8305C; test: cells; assay type: functional, cell-based, Homo sapiens; details: Homo sapiens, 8305C
Description: SANGER: Inhibition of human 8305C cell growth in a cell viability assay.

[41] = system: SNU-C1; test: cells; assay type: functional, cell-based, Homo sapiens; details: Homo sapiens, SNU-C1;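 note: growth inhibition of SNU-C1 human cells, read out by a cell viability assay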
Description: SANGER: Inhibition of human SNU-C1 cell growth in a cell viability assay.

[42] = system: Detroit 562; test: cells; assay type: functional, cell-based, Homo sapiens; details: Homo sapiens, Detroit 562;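 note: growth inhibition of human Detroit 562 cells, read out by a cell viability assay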
Description: SANGER: Inhibition of human Detroit562 cell growth in a cell viability assay.

[43] = system: UMC-11; test: cells; assay type: functional, cell-based, Homo sapiens; details: Homo sapiens, UMC-11;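 note: growth inhibition of UMC-11 cells, read out with a cell viability assay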
Description: SANGER: Inhibition of human UMC-11 cell growth in a cell viability assay.

[44] = system: NCI-H2228; test: cells; assay type: functional, cell-based, Homo sapiens; details: Homo sapiens, NCI-H2228;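 note: growth inhibition of human NCI-H2228 cells, read out by a cell viability assay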
Description: SANGER: Inhibition of human NCI-H2228 cell growth in a cell viability assay.

[45] = system: NCI-H650; test: cells; assay type: functional, cell-based, Homo sapiens; details: Homo sapiens, NCI-H650;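 note: growth inhibition of NCI-H650 cells, read out by a viability assay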
Description: SANGER: Inhibition of human NCI-H650 cell growth in a cell viability assay.

[46] = system: SK-MM-2; test: cells; assay type: functional, cell-based, Homo sapiens; details: Homo sapiens, SK-MM-2;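 note: growth inhibition of human SK-MM-2 cells, read out with a cell viability assay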
Description: SANGER: Inhibition of human SK-MM-2 cell growth in a cell viability assay.

[47] = system: WM-115; test: cells; assay type: functional, cell-based, Homo sapiens; details: Homo sapiens, WM-115
Description: SANGER: Inhibition of human WM-115 cell growth in a cell viability assay.

Work on `COc1cccc2c1C(=O)c1c(O)c3c(c(O)c1C2=O)C[C@@](O)(C(=O)CO)C[C@@H]3O[C@H]1C[C@H](N)[C@H](O)[C@H](C)O1` [DOXORUBICIN] yielded a pIC50 [1] of 6.18, a pIC50 [2] of 6.28 and a pIC50 [3] of 7.22. The pIC50 [4] was 7.42, the pIC50 [5] was less than 5.99 and the pIC50 [6] was less than 5.99. It also gave a pIC50 [7] of 6.71, a pIC50 [8] of 7.55 and a pIC50 [9] of 7.24. The pIC50 [10] was 7.08, the pIC50 [11] was 7.03 and the pIC50 [12] was 7.35. It also gave a pIC50 [13] of 7.50, a pIC50 [14] of 6.67 and a pIC50 [15] of less than 5.99. The pIC50 [16] was 7.30, the pIC50 [17] was less than 5.99 and the pIC50 [18] was 7.44. The pIC50 [19] was 6.57, the pIC50 [20] was 8.07 and the pIC50 [21] was 6.70. The pIC50 [22] was 7.47, the pIC50 [23] was 7.80 and the pIC50 [24] was 7.01. It also gave a pIC50 [25] of less than 5.99, a pIC50 [26] of less than 5.99 and a pIC50 [27] of 6.30. It also gave a pIC50 [28] of 7.73, a pIC50 [29] of less than 5.99 and a pIC50 [30] of 6.67. For the same compound, the pIC50 [31] was 7.29, the pIC50 [32] was 6.96 and the pIC50 [33] was 7.57. The pIC50 [34] was 6.97, the pIC50 [35] was 6.37 and the pIC50 [36] was 7.70. The pIC50 [37] was less than 5.99, the pIC50 [38] was 6.95 and the pIC50 [39] was less than 5.99. For the same compound, the pIC50 [40] was 7.20, the pIC50 [41] was less than 5.99 and the pIC50 [42] was 6.64. For the same compound, the pIC50 [43] was 6.48, the pIC50 [44] was 7.87 and the pIC50 [45] was 6.66. For the same compound, the pIC50 [46] was 6.03 and the pIC50 [47] was less than 5.99.

`Nc1ccn([C@@H]2O[C@H](CO)[C@@H](O)C2(F)F)c(=O)n1` [GEMCITABINE] gave a pIC50 [1] of 7.14, a pIC50 [2] of 6.37 and a pIC50 [3] of 8.43. It also gave a pIC50 [4] greater than 8.40, a pIC50 [5] of less than 5.99 and a pIC50 [6] of less than 5.99. The pIC50 [7] was 6.92, the pIC50 [8] was 7.68 and the pIC50 [9] was 7.80. The pIC50 [10] was 6.34, the pIC50 [11] was 8.81 and the pIC50 [12] was 8.15. The pIC50 [13] was greater than 8.40, the pIC50 [14] was 8.80 and the pIC50 [15] was less than 5.99. The pIC50 [16] was 7.55, the pIC50 [17] was less than 5.99 and the pIC50 [18] was greater than 8.40. It also gave a pIC50 [19] of 7.73, a pIC50 [20] greater than 8.40 and a pIC50 [21] of 7.21. The pIC50 [22] was 7.63, the pIC50 [23] was 8.00 and the pIC50 [24] was greater than 8.40. The pIC50 [25] was less than 5.99, the pIC50 [26] was less than 5.99 and the pIC50 [27] was less than 5.99. It also gave a pIC50 [28] greater than 8.40, a pIC50 [29] of less than 5.99 and a pIC50 [30] of 7.08. It also gave a pIC50 [31] of 8.03, a pIC50 [32] of 7.92 and a pIC50 [33] of 8.52. The pIC50 [34] was 6.65, the pIC50 [35] was less than 5.99 and the pIC50 [36] was 6.75. The pIC50 [37] was 7.09, the pIC50 [38] was 8.35 and the pIC50 [39] was less than 5.99. The pIC50 [40] was 8.02, the pIC50 [41] was less than 5.99 and the pIC50 [42] was 7.98. It also gave a pIC50 [43] of less than 5.99, a pIC50 [44] greater than 8.40 and a pIC50 [45] of 6.25. It also gave a pIC50 [46] of 6.32 and a pIC50 [47] of less than 5.99.

`O=C(O)c1ccc(-c2c[nH]c3ncc(-c4ccccc4)cc23)cc1C1CCCC1` [GSK-650394] showed a pIC50 [1] of less than 4.80, a pIC50 [2] of less than 4.80 and a pIC50 [3] of 5.41. The pIC50 [4] was 5.46, the pIC50 [5] was less than 4.80 and the pIC50 [6] was less than 4.80. It also gave a pIC50 [7] of less than 4.80, a pIC50 [8] of 5.43 and a pIC50 [9] of 5.58. It also gave a pIC50 [10] of less than 4.80, a pIC50 [11] of less than 4.80 and a pIC50 [12] of less than 4.80. The pIC50 [13] was 4.80, the pIC50 [14] was less than 4.80 and the pIC50 [15] was less than 4.80. It also gave a pIC50 [16] of 5.09, a pIC50 [17] of less than 4.80 and a pIC50 [18] of less than 4.80. For the same compound, the pIC50 [19] was less than 4.80, the pIC50 [20] was 5.53 and the pIC50 [21] was less than 4.80. It also gave a pIC50 [22] of 5.15, a pIC50 [23] of 5.28 and a pIC50 [24] of less than 4.80. The pIC50 [25] was less than 4.80, the pIC50 [26] was less than 4.80 and the pIC50 [27] was less than 4.80. For the same compound, the pIC50 [28] was less than 4.80, the pIC50 [29] was less than 4.80 and the pIC50 [30] was less than 4.80. It also gave a pIC50 [31] of less than 4.80, a pIC50 [32] of less than 4.80 and a pIC50 [33] of less than 4.80. For the same compound, the pIC50 [34] was less than 4.80, the pIC50 [35] was less than 4.80 and the pIC50 [36] was less than 4.80. The pIC50 [37] was 5.44, the pIC50 [38] was less than 4.80 and the pIC50 [39] was less than 4.80. The pIC50 [40] was less than 4.80, the pIC50 [41] was less than 4.80 and the pIC50 [42] was 4.89. For the same compound, the pIC50 [43] was less than 4.80, the pIC50 [44] was 5.33 and the pIC50 [45] was 5.18. It also gave a pIC50 [46] of less than 4.80 and a pIC50 [47] of less than 4.80.
